In data set [1] the target is T1, human cytochrome P450 (CYP) 1A2 (Homo sapiens, UniProt P05177).
T1 sequence (P05177 1-516): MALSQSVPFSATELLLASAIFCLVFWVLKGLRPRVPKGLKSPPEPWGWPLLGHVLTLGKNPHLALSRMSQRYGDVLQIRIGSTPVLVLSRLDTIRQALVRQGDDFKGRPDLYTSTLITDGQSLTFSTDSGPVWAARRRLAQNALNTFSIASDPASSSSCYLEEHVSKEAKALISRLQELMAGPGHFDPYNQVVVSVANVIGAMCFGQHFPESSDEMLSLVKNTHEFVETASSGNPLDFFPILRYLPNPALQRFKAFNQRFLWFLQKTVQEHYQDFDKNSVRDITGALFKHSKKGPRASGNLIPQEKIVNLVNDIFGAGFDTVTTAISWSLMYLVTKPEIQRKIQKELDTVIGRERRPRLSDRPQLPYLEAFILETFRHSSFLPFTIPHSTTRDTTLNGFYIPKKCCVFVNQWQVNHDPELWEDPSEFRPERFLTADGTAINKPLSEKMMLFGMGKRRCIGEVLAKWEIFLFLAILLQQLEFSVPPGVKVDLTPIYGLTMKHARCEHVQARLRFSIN
Description: (§1) The inhibitory potential (IC50) of test compounds against 5 human cytochrome P450 (CYP) isoforms (IA2, 2C9, 2C19, 3A4 and 2D6) was assessed using an automated fluorescent end point in vitro assay modified from Crespi (Crespi and Stresser, 2000). Microsomal subcellular fractions prepared from Yeast cell lines expressing each human CYP isoform were used as an enzyme source in this assay. The activity of the 5 major human CYPs was determined from the biotransformation of a number of coumarin substrates to fluorescent metabolites, in the presence of NADPH. […] Stock solutions of each CYP, with its respective substrate, were prepared in phosphate buffer pH7.4 (see Table 1) and 178 μl was added to the well of a black solid, flat bottom, 300 μl 96 well microtitre plate (Coming Costar). […] After pre-incubating at 37° C. for 5 min the reactions were started with addition of NADPH (20 μl, concentration shown in Table 1). The final solvent content in each incubation was <=2% (1% from the test compound and a maximum of 1% from the substrate). The appropriate solvent controls and substrate blanks were included in each experiment to assess control activity and identify any inherent fluorescence due to the test compounds. In addition, known inhibitors of each CYP were included as positive controls (see Table 3 for inhibitor concentrations and expected IC50 ranges). The reactions were stopped at defined timepoints (see Table 1) by quenching with 100 μl of solvent (acetonitrile:0.5M Tris buffer 80:20 v/v). The plates were read on a fluorimeter (Spectrafluor Plus) at the appropriate excitation and emission wavelengths (listed in Table 2) and the percent activity, corrected for control, was plotted against the test compound concentration.

The next data set deals with CYP2D6 (Homo sapiens, UniProt P10635). Description: in vitro. Conditions: pH 7.4, probe coumarin substrate (not named).
Data set [2] concerns the target human cytochrome P450 (CYP) 2C9 (Homo sapiens, UniProt P11712).
Description: as §1
Data set [3] deals with human cytochrome P450 (CYP) 2C19 (Homo sapiens, UniProt P33261).
Description: as §1
Data set [4] deals with T2, human cytochrome P450 (CYP) 3A4 (Homo sapiens, UniProt P08684).
T2 construct: made in house; host or cells: yeast (microsomal fraction)
Description: Cytochrome P450 inhibition assay, 3A4. Format: in vitro ADME. The settings on record: test concentrations 0.1-10 μM.
Description: as §1

Another data set addresses T3, FGFR kinase domain (Homo sapiens, UniProt P11362, C488A/C584S).
T3 construct: FGFR kinase domain (amino acids 458-765, C488A, C584S) N-terminally fused to a His6-tag; made in house
As to the kind of experiment: Kinase assay (ELISA) for inhibition of FGFR activity. Format: biochemical. The protocol:
To determine inhibition of FGFR activity, kinase assays were conducted using ELISA (Enzyme-Linked Immunosorbent Assay) technology.
Kinase activity assays were performed in 384-well polypropylene plates (Matrix, 4311) with a total volume of 40 μl in each well. Each well was coated with 2 μg of polyEAY substrate (Sigma, P3899) at 4° C. overnight. The plates were then washed once with 100 μl PBS and once with 100 μl 50 mM HEPES (pH 7.4) prior to the addition of the kinase assay reagents. […] Various concentrations of test compounds were each added in 5% (v/v) DMSO to yield a final assay DMSO concentration of 1.25% (v/v). The kinase reactions were incubated at room temperature for 45 minutes and stopped by washing the plate three times with 100 μl PBS plus 0.05% Tween. […] Following this, the plates were then washed repeatedly with 100 μl PBS plus 0.05% Tween to remove all traces of the antibody solution. 40 μl of 50 μg/ml 3,3′,5,5′-Tetramethylbenzidine (Sigma, T2885), 0.05M phosphate-citrate buffer, containing 0.03% sodium perborate was added to each well and the plates incubated at room temperature for twelve minutes. The colour reaction was stopped by the addition of 20 μl 2M H2SO4 and the plates read at 450 nm on a Spectrafluor Plus (Tecan).
On the technique in general: An ELISA detects its analyte on a solid surface through an enzyme-linked reagent.

Another data set concerns Erk phosphorylation. As to the kind of experiment: Growth factor (bFGF) stimulated Erk phosphorylation in NIH 3T3 cells. The settings on record: Mus musculus.
Another data set has as its target T4, human IGF1R (Homo sapiens, UniProt P08069).
T4 construct: expressed in transfected cells; host or cells: R+ cells (R- mouse fibroblasts transfected with human IGF1R)
As to the kind of experiment: Inhibition of insulin-like growth factor-1 receptor phosphorylation in R+ cells. Format: cell-based. Conditions: 30 nM IGF1, read-out: IGF cell class.

The target of the next data set is T5, CYP3A4 (Homo sapiens, UniProt P08684).
T5 construct: made in house; host or cells: yeast (microsomal fraction)
As to the kind of experiment: Cytochrome P450 inhibition assay, 3A4. Format: in vitro ADME. The settings on record: human, pH 7.4, probe coumarin substrate (not named); test concentrations 0.1-10 μM.

In data set [5] the target is T6, FGFR1 IIIc (Homo sapiens, UniProt P11362).
T6 construct: host or cells: Cos-1
Description: Cell based inhibition of transiently expressed FGFR1 IIIc phosphorylation (Cos-1 cells). The settings on record: Cos-1 cells, phospho-FGFR1; upper bound of bin; read-out: IC50.

The target in the next data set is FGFR1 kinase (Homo sapiens, UniProt P11362). Description: Kinase assay (using Caliper technology). Format: biochemical. Conditions: FGFR1 kinase, Caliper; upper bound of bin; read-out: IC50. The essentials: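 Human FGFR1 kinase activity measured with a 13-mer fluorescently tagged FGFR1-specific peptide substrate; compounds serially diluted in 5% (v/v) DMSO. Reactions ran 1.5 h at room temperature, stopped with EDTA-containing HEPES pH 7.5 buffer. Phosphorylated and unphosphorylated peptide separated by microfluidic mobility shift.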

Data set [6] has as its target T6, FGFR1 IIIc. Description: Cell based inhibition of transiently expressed FGFR1 IIIc phosphorylation via use of ECHO technology (Cos-1 cells). The settings on record: Cos-1 cells, phospho-FGFR1, ECHO dosing; upper bound of bin; read-out: IC50.
Setting [7] is: comparative testing, read-out: Fgf Ic50.
Setting [8] is: FGFR inhibition tests, ELISA kinase assay, read-out: Activity class.
[9] abbreviates: NIH3T3, NIH 3T3 cells, 3 ng/ml bFGF.

Where two headings read alike, the source gives them in different places.

human cytochrome P450 (CYP) 2C19, sequence (P33261 whole entry): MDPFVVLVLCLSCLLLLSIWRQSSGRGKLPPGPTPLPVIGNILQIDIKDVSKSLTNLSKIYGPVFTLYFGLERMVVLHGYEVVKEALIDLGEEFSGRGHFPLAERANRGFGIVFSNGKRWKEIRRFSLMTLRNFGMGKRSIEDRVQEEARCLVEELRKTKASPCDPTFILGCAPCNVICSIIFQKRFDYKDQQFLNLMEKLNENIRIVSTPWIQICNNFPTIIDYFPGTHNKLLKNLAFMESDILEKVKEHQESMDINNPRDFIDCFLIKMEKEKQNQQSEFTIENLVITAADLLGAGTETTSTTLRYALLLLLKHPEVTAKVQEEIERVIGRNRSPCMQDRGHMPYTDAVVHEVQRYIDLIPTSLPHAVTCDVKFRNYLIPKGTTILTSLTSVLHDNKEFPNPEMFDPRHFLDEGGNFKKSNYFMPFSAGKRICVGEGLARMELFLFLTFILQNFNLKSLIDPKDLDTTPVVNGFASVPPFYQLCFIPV
T2 sequence (P08684 whole entry): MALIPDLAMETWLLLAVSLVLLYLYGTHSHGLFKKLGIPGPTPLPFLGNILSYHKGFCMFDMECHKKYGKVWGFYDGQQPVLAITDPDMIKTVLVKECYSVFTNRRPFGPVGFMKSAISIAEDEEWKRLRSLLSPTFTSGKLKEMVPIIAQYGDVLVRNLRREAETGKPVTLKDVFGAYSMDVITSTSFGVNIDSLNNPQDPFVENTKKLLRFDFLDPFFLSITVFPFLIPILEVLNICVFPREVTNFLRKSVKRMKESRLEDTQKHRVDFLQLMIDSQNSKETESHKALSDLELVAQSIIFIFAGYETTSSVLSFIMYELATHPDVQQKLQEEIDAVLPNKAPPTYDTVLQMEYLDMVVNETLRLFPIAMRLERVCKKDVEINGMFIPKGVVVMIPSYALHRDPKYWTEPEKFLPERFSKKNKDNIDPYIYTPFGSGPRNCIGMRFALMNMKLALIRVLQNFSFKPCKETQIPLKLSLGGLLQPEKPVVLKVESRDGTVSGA
human cytochrome P450 (CYP) 2C9, sequence (P11712 whole entry): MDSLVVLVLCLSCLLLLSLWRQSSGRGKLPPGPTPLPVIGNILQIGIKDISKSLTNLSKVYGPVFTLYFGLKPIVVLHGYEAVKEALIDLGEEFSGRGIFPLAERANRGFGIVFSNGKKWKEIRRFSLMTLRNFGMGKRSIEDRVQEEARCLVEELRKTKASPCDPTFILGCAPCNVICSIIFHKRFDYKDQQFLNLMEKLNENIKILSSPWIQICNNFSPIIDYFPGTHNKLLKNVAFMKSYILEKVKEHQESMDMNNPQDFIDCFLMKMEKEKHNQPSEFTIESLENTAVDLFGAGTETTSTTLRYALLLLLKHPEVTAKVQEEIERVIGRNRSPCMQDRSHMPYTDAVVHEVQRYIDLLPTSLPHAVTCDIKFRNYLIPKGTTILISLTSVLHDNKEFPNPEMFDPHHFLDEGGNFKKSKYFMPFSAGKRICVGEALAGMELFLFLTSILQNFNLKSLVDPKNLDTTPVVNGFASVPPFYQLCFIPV
T4 sequence (P08069 31-1367): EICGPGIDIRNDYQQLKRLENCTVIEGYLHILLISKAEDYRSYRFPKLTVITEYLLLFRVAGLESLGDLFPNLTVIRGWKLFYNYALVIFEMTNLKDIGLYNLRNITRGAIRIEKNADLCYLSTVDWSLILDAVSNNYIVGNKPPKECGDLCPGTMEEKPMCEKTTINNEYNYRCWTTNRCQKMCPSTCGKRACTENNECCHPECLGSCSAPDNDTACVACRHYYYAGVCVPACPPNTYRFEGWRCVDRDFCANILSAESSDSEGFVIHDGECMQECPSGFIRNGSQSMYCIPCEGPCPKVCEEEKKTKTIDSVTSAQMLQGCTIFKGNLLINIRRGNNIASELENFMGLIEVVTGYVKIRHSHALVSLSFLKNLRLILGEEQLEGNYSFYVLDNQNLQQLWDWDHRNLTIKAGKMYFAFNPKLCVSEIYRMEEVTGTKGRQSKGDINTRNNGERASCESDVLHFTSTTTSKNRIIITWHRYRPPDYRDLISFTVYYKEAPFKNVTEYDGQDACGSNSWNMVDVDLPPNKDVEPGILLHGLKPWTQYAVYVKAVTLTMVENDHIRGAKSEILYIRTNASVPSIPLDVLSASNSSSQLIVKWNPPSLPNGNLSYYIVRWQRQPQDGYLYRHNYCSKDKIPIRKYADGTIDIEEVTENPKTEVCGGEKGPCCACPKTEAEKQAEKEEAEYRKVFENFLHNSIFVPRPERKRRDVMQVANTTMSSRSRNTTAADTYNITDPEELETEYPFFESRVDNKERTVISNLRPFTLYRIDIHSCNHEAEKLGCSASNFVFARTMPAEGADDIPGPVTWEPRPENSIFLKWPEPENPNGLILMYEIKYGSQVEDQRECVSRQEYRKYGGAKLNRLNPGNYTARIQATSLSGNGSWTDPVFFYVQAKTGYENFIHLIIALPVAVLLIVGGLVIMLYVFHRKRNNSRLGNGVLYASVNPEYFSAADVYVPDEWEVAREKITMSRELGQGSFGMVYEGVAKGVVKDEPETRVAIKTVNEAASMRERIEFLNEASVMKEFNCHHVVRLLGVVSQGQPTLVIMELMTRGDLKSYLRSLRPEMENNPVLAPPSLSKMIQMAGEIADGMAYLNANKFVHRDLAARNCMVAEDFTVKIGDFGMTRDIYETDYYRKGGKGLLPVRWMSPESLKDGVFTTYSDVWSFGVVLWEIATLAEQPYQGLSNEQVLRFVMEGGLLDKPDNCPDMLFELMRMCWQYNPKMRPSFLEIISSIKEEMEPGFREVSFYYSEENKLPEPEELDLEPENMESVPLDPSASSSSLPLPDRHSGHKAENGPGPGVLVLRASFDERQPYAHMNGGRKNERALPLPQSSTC
FGFR1 kinase, sequence (P11362 22-822): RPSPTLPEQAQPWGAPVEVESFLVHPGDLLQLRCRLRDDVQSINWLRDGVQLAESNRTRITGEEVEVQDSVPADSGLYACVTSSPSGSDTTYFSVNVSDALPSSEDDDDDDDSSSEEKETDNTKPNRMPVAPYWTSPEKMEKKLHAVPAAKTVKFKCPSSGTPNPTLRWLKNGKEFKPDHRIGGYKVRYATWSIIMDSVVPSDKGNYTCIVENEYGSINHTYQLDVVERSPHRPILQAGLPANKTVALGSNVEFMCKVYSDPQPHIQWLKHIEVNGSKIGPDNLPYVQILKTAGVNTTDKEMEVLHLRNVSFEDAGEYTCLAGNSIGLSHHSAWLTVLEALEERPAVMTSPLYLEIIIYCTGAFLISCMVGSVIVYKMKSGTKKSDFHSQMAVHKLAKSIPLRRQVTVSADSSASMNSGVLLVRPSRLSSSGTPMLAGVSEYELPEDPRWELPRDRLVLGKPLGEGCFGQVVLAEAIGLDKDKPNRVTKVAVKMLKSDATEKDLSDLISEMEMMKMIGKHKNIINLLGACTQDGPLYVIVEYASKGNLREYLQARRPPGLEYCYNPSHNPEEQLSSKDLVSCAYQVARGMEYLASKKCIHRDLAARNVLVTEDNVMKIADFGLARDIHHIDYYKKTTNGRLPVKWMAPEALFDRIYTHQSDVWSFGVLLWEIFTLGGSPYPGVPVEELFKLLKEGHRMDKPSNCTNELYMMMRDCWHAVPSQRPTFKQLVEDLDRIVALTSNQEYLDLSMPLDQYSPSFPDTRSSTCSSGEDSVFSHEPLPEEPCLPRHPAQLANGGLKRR
T6 sequence (P11362 22-822): as above
CYP2D6, sequence (P10635 whole entry): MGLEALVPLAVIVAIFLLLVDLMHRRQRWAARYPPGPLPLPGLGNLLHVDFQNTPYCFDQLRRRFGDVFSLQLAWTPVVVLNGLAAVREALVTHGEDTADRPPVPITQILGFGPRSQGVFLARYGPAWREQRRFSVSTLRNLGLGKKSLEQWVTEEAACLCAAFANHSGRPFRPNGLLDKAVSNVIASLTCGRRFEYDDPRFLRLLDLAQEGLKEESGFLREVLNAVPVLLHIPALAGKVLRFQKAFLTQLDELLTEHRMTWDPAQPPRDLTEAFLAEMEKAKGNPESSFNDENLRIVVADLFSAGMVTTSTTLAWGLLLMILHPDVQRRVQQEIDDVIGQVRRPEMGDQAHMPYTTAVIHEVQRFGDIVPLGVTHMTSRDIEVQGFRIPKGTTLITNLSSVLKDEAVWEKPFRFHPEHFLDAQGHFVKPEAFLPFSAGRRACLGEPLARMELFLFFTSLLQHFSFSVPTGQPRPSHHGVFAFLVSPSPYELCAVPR
T3 sequence (P11362 458-765 C488A/C584S): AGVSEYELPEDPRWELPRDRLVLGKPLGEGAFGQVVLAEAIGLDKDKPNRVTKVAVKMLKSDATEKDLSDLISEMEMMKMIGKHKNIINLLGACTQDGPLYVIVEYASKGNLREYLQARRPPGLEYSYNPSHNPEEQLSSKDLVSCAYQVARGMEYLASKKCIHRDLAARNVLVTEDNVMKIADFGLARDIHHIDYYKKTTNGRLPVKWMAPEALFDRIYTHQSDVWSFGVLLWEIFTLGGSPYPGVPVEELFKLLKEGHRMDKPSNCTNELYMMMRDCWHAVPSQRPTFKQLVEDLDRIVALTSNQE
T5 sequence (P08684 whole entry): as the sequence (P08684 whole entry) above
Description for CYP2D6: as §1
Description for CYP3A4: as §1

As for `Cc1cc(CNc2ncc(Cl)c(Nc3cc(C)[nH]n3)n2)on1` [(b), 5-chloro-N-[(3-methylisoxazol-5-yl)methyl]-N′-(5-methyl-2H-pyrazol-3-yl)pyrimidine-2,4-diamine], the IC50 in data set [1] was 460 nM; on CYP2D6, > 10000 nM; in data set [2] it was 1120 nM; in data set [3], > 10000 nM; in data set [4] it was 4400 nM.

As to `Cc1cc(Nc2nc(NCc3cc(C)no3)ncc2Br)[nH]n1` [Comparative Example (a), 5-bromo-N-[(3-methylisoxazol-5-yl)methyl]-N′-(5-methyl-2H-pyrazol-3-yl)pyrimidine-2,4-diamine], the IC50 in data set [1] is 790 nM; at FGFR kinase domain (setting [7]), 140 nM; at CYP2D6, > 10000 nM; in [2], > 10000 nM; in data set [3], > 10000 nM; in data set [4], 3310 nM.

Turning to `CCCc1cc(Nc2nc(NCc3cc(C)no3)ncc2Br)n[nH]1` [Comparative Example (d), 5-bromo-N-[(3-methylisoxazol-5-yl)methyl]-N′-(5-propyl-2H-pyrazol-3-yl)pyrimidine-2,4-diamine], the IC50 in [1] is ≤ 100 nM; on FGFR kinase domain (setting [7]), 90 nM; at CYP2D6, > 10000 nM; in data set [2], 3080 nM; in data set [3], 2880 nM; in data set [4], 370 nM.

For the molecule `Cc1cc(CNc2nccc(Nc3cc(C)[nH]n3)n2)on1` [Example 1, N-[(3-methylisoxazol-5-yl)methyl]-N′-(5-methyl-2H-pyrazol-3-yl)pyrimidine-2,4-diamine], the IC50 in the data set with Erk phosphorylation (NIH3T3) was < 1000 nM; in data set [1], > 10000 nM; against CYP2D6, > 10000 nM; on human IGF1R, > 10000 nM; in data set [2] it was > 10000 nM; in data set [3], > 10000 nM. In addition, in data set [4], the IC50 is 5700 nM.

For `Cc1cc(CNc2nccc(Nc3cc(C4CC4)[nH]n3)n2)on1` [Example 9, N′-(5-cyclopropyl-2H-pyrazol-3-yl)-N-[(3-methyl-1,2-oxazol-5-yl)methyl]pyrimidine-2,4-diamine], the IC50 in data set [1] was 2190 nM; at FGFR kinase domain (setting [8]) it was < 100 nM; at FGFR kinase domain (setting [7]), 40 nM; against CYP2D6, > 10000 nM; on human IGF1R, 1000 to 10000 nM; in data set [2], > 10000 nM. Moreover, the IC50 (in data set [3]; against CYP3A4) was > 10000 nM in each case.

With `Cc1cc(CNc2nccc(Nc3cc(OC(C)C)[nH]n3)n2)on1` [Example 66, N-[(3-methyl-1,2-oxazol-5-yl)methyl]-N′-(5-propan-2-yloxy-2H-pyrazol-3-yl)pyrimidine-2,4-diamine], the IC50 in the data set with Erk phosphorylation (setting [9]) is < 200 nM; on FGFR1 IIIc [5], < 1000 nM; on FGFR1 kinase, < 200 nM; on FGFR kinase domain (setting [8]), < 100 nM; at human IGF1R it was > 10000 nM; at FGFR1 IIIc [6], < 1000 nM.

In the case of `CC(C)Oc1cc(Nc2ccnc(NCc3cc(C4CC4)no3)n2)n[nH]1` [Example 67, N-[(3-cyclopropyl-1,2-oxazol-5-yl)methyl]-N′-(5-propan-2-yloxy-2H-pyrazol-3-yl)pyrimidine-2,4-diamine], the IC50 in the data set with Erk phosphorylation (setting [9]) is < 200 nM; on FGFR1 IIIc [5], < 200 nM; on FGFR1 kinase, < 200 nM; on FGFR kinase domain (setting [8]), < 100 nM; at human IGF1R it was 1000 to 10000 nM; at FGFR1 IIIc [6], < 200 nM.

As to `COc1cc(COc2cc(Nc3ccnc(NCc4cc(C)no4)n3)n[nH]2)cc(OC)c1` [Example 73, N′-[5-[(3,5-dimethoxyphenyl)methoxy]-1H-pyrazol-3-yl]-N-[(3-methyl-1,2-oxazol-5-yl)methyl]pyrimidine-2,4-diamine], the IC50 is < 200 nM in the data set on Erk phosphorylation (setting [9]); < 200 nM at FGFR1 IIIc [5]; < 200 nM on FGFR1 kinase; < 100 nM on FGFR kinase domain (setting [8]); 1000 to 10000 nM on human IGF1R; < 200 nM at FGFR1 IIIc [6].

The molecule `COc1ccc2[nH]c([S+]([O-])Cc3ncc(C)c(OC)c3C)nc2c1` (stereo not drawn) [Omeprazole] had an IC50 in [3] of 1500 to 4600 nM.

These data come from patent US20080004302A1, “Novel Compounds” (ASTRAZENECA AB, priority 2006, published 2008).
